We go through two molecules from paper PMC6108126, “Purification, characterization and immunogenicity assessment of glutaminase free L-asparaginase from Streptomyces brollosae NEAE-115” (BMC Pharmacology & Toxicology, 2018).

The test system of data set [1] is T1, L-asparaginase from Streptomyces brollosae NEAE-115.
T1 construct: gene L-asparagine amidohydrolase
Conditions: 0.05 M Tris-HCl, pH 8.6, 37 °C (standard assay); 1-10 mM substrate.

Substrate in the data set “purified protein”: NC(=O)C[C@H](N)C(=O)O
The experiment in a line: purified protein. Conditions: 0.05 M Tris-HCl, pH 8.6, 37 °C (standard assay), 1-10 mM substrate.

The term Km denotes the concentration of substrate that gives half-maximal velocity. For `NC(=O)C[C@H](N)C(=O)O` [L-asparagine], the Km in data set [1] amounted to 2140 µM.

B1: commercially available L-asparaginase from E. coli (Escherichia coli K-12) (protein)
chain: LPNITILATGGTIAGGGDSATKSNYTVGKVGVENLVNAVPQLKDIANVKGEQVVNIGSQDMNDNVWLTLAKKINTDCDKTDGFVITHGTDTMEETAYFLDLTVKCDKPVVMVGAMRPSTSMSADGPFNLYNAVVTAADKASANRGVLVVMNDTVLDGRDVTKTNTTDVATFKSVNYGPLGYIHNGKIDYQRTPARKHTSDTPFDVSKLNELPKVGIVYNYANASDLPAKALVDAGYDGIVSAGVGNGNLYKSVFDTLATAAKTGTAVVRSSRVPTGATTQDAEVDDAKYGFVASGTLNPQKARVLLQLALTQTKDPQQIQQIFNQY
As to B1, in “purified protein”, the Km amounted to 176 µM.
